# Results reported in patent US7550456B2, “Substituted aryl cycloalkanoyl derivatives and methods of their use” (Wyeth, priority 2003, dated 2009).
# Where a name gives a salt, the structure may show the parent alone.
# Target: T1, human hNET (Homo sapiens, UniProt P23975)
# T1 construct: expressed in transfected cells; host or cells: MDCK-Net6 (MDCK cells, stably transfected)
# Test: Norepinephrine (NE) uptake assay in MDCK-Net6 cells
# Format: cell-based
# Settings: 1 μM test compound, [3H]NE uptake, read-out: % Inhibition @ 1 μM (hNET)
# In short: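 Radiolabelled NE uptake was counted by scintillation after NaOH lysis, with 1 µM desipramine defining non-specific uptake. EC50 came from a logistic dose-response fit.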
# T1 sequence (P23975 whole entry): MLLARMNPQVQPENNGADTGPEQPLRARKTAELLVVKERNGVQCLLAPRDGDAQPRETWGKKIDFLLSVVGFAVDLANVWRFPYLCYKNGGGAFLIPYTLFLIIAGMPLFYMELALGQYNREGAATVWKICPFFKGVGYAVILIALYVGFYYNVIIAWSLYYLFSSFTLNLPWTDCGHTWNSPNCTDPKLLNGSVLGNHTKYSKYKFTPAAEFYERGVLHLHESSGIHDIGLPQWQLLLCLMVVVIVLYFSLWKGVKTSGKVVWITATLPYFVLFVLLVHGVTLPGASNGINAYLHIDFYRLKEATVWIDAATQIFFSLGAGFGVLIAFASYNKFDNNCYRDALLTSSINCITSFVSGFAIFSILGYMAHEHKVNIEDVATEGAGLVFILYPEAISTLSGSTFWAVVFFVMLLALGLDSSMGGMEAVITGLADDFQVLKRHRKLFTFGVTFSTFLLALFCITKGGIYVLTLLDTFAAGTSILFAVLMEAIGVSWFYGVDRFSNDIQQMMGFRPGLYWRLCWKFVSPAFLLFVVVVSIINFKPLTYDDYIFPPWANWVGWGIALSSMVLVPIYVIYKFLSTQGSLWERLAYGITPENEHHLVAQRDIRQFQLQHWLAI
row,SMILES,inhibition at 1 µM [%]
1,"CC(C)COc1ccc(C(CN2CCN(C)CC2)C2(O)CCCCC2)cc1OC(F)(F)F (stereo not shown) [Example 407, 1-[1-[4-isobutoxy-3-(trifluoromethoxy)phenyl]-2-(4-methylpiperazin-1-yl)ethyl]cyclohexanol dihydrochloride]",12
2,"CN1CCN(CC(c2ccc(OCCc3ccccc3)c(Cl)c2)C2(O)CCCCC2)CC1 (stereo not shown) [Example 453, 1-[1-[3-chloro-4-(2-phenylethoxy)phenyl]-2-(4-methylpiperazin-1-yl)ethyl]cyclohexanol dihydrochloride]",82
3,"OC1(C(CN2CCNCC2)c2ccc(OCCc3ccc(F)cc3)cc2)CCCCC1 (stereo not shown) [Example 462, 1-(1-{4-[2-(4-fluorophenyl)ethoxy]phenyl}-2-piperazin-1-ylethyl)cyclohexanol dihydrochloride]",47
4,"C[C@H]1CN(C[C@H](c2cccc(OC(F)(F)F)c2)C2(O)CCCCC2)CCN1C [Example 349, 1-{(1S)-2-[(3S)-3,4-dimethylpiperazin-1-yl]-1-[3-(trifluoromethoxy)phenyl]ethyl}cyclohexanol dihydrochloride]",82
5,"CN1CCN(CC(c2ccc(-c3cccc(C#N)c3)cc2)C2(O)CCCCC2)CC1 (stereo not shown) [Example 177, 1-[1-(3′-cyano-1,1′-biphenyl-4-yl)-2-(4-methylpiperazin-1-yl)ethyl]cyclohexanol dihydrochloride]",54
6,"CC1(C)CCCC1(O)C(CN1CCNCC1)c1cccc(OC(F)(F)F)c1 (stereo not shown) [Example 396, 2,2-dimethyl-1-{2-piperazin-1-yl-1-[3-(trifluoromethoxy)phenyl]ethyl}cyclopentanol dihydrochloride]",33
7,"CN1CCN(CC(c2ccc(OCc3ccc(Br)cc3F)c(Cl)c2)C2(O)CCCCC2)CC1 (stereo not shown) [Example 426, 1-[1-{4-[(4-bromo-2-fluorobenzyl)oxy]-3-chlorophenyl}-2-(4-methylpiperazin-1-yl)ethyl]cyclohexanol dihydrochloride]",84
8,"CN1CCN(CC(c2ccc(OCc3ccccc3C(F)(F)F)cc2)C2(O)CCCCC2)CC1 (stereo not shown) [Example 441, 1-[2-(4-methylpiperazin-1-yl)-1-(4-{[2-(trifluoromethyl)benzyl]oxy}phenyl)ethyl]cyclohexanol dihydrochloride]",33
9,"CN1CCN(CC(c2ccc(OCc3ccccc3)c(C(F)(F)F)c2)C2(O)CCCCC2)CC1 (stereo not shown) [Example 264, 1-[1-[4-(benzyloxy)-3-(trifluoromethyl)phenyl]-2-(4-methylpiperazin-1-yl)ethyl]cyclohexanol dihydrochloride]",89
10,"OC1(C(CN2CCNCC2)c2ccc(CCc3ccccc3)cc2)CCCCC1 (stereo not shown) [Example 409, 1-{1-[4-(2-phenylethyl)phenyl]-2-piperazin-1-ylethyl}cyclohexanol dihydrochloride]",62
11,"CN1CCN(CC(c2ccc(OCc3ccccc3)cc2)C2(O)CCCCC2)CC1 (stereo not shown) [Example 322, 1-[2-(4-Methyl-1-piperazinyl)-1-[4-phenylmethoxy)phenyl]ethyl]cyclohexanol dihydrochloride]",97.2
12,"CN1CCN(CC(c2cccc(OC(F)(F)F)c2)C2(O)CCC2)CC1 (stereo not shown) [Example 92, 1-{2-(4-methylpiperazin-1-yl)-1-[3-(trifluoromethoxy)phenyl]ethyl}cyclobutanol dihydrochloride]",13
13,"CN1CCN(CC(c2ccc(Oc3cccc4ccccc34)cc2)C2(O)CCCCC2)CC1 (stereo not shown) [Example 399, 1-{2-(4-methylpiperazin-1-yl)-1-[4-(1-naphthyloxy)phenyl]ethyl}cyclohexanol dihydrochloride]",17
14,"OC1(C(CN2CCN(CC3CCCCC3)CC2)c2ccc(Oc3ccccc3)cc2)CCCCC1 (stereo not shown) [Example 309, 1-[2-[4-(cyclohexylmethyl)piperazin-1-yl]-1-(4-phenoxyphenyl)ethyl]cyclohexanol dihydrochloride]",19.7
15,"C[C@@H]1CN(C[C@H](c2cccc(OC(F)(F)F)c2)C2(O)CCCCC2)C[C@H](C)N1C [Example 368, 1-{(1S)-1-[3-(trifluoromethoxy)phenyl]-2-[(3R,5S)-3,4,5-trimethylpiperazin-1-yl]ethyl}cyclohexanol dihydrochloride]",93
16,"CN1CCN(CC(c2ccc(OCc3ccccc3C(F)(F)F)c(Cl)c2)C2(O)CCCCC2)CC1 (stereo not shown) [Example 422, 1-[1-(3-chloro-4-{[2-(trifluoromethyl)benzyl]oxy}phenyl)-2-(4-methylpiperazin-1-yl)ethyl]cyclohexanol dihydrochloride]",20
17,"CN1CCN(CC(c2cccc(OCc3ccccc3)c2)C2(O)CCCCC2)CC1 (stereo not shown) [Example 108, 1-[1-[3-(benzyloxy)phenyl]-2-(4-methylpiperazin-1-yl)ethyl]cyclohexanol dihydrochloride]",0
18,"CC(C)(O)CN1CCN(CC(c2cccc(OC(F)(F)F)c2)C2(O)CCCCC2)CC1 (single isomer, unassigned) [Example 372, 1-{2-[4-(2-hydroxy-2-methylpropyl)piperazin-1-yl]-1-[3-(trifluoromethoxy)phenyl]ethyl}cyclohexanol dihydrochloride]",37

# The remaining lines, values ahead:
row,inhibition at 1 µM [%],SMILES
1,87,"OC1([C@H](CN2CCNCC2)c2cccc(Oc3ccccc3)c2)CCCCC1 (single isomer, unassigned) [Example 357, dihydrochloride]"
2,65,"OC1(C(CN2CCNCC2)c2cccc(-c3ccc(Cl)c(Cl)c3)c2)CCCCC1 (stereo not shown) [Example 135, 1-[1-(3′,4′-dichloro-1,1′-biphenyl-3-yl)-2-piperazin-1-ylethyl]cyclohexanol dihydrochloride]"
3,55,"OC1(C(CN2CCNCC2)c2ccc(-c3ccc(Cl)cc3)cc2)CCCCC1 (stereo not shown) [Example 172, 1-[1-(4′-chloro-1,1′-biphenyl-4-yl)-2-piperazin-1-ylethyl]cyclohexanol dihydrochloride]"
4,99,"COc1cccc(COc2ccc(C(CN3CCNCC3)C3(O)CCCCC3)cc2Cl)c1 (stereo not shown) [Example 454, 1-(1-{3-chloro-4-[(3-methoxybenzyl)oxy]phenyl}-2-piperazin-1-ylethyl)cyclohexanol dihydrochloride]"
5,49,"CN1CCN(CC(c2cccc(-c3ccc(Cl)c(Cl)c3)c2)C2(O)CCCCC2)CC1 (stereo not shown) [Example 247, 1-[1-(3′,4′-dichloro-1,1′-biphenyl-3-yl)-2-(4-methylpiperazin-1-yl)ethyl]cyclohexanol dihydrochloride]"
6,43,"OC1(C(CN2CCNCC2)c2ccc(-c3cccc(Cl)c3)cc2)CCC1 (stereo not shown) [Example 182, 1-[1-(3′-chloro-1,1′-biphenyl-4-yl)-2-piperazin-1-ylethyl]cyclobutanol dihydrochloride]"
7,2,"OC1(C(CN2CCNCC2)c2cccc(-c3ccc(Cl)c(Cl)c3)c2)CCC1 (stereo not shown) [Example 153, 1-[1-(3′,4′-dichloro-1,1′-biphenyl-3-yl)-2-piperazin-1-ylethyl]cyclobutanol dihydrochloride]"
8,36,"N#Cc1ccccc1-c1ccc(C(CN2CCNCC2)C2(O)CCCCC2)cc1 (stereo not shown) [Example 290, 4′-[1-(1-hydroxycyclohexyl)-2-piperazin-1-ylethyl]-1,1′-biphenyl-2-carbonitrile dihydrochloride]"
9,79,"OC1(C(CN2CCNCC2)c2ccc(OCc3cccc(C(F)(F)F)c3)c(Cl)c2)CCCCC1 (stereo not shown) [Example 423, 1-[1-(3-chloro-4-{[3-(trifluoromethyl)benzyl]oxy}phenyl)-2-piperazin-1-ylethyl]cyclohexanol dihydrochloride]"
10,90,"COc1ccccc1COc1ccc(C(CN2CCNCC2)C2(O)CCCCC2)cc1Cl (stereo not shown) [Example 456, 1-(1-{3-chloro-4-[(2-methoxybenzyl)oxy]phenyl}-2-piperazin-1-ylethyl)cyclohexanol dihydrochloride]"
11,32,"OC1(C(CN2CCNCC2)c2ccccc2-c2ccc(Cl)c(Cl)c2)CCCCC1 (stereo not shown) [Example 148, 1-[1-(3′,4′-dichloro-1,1′-biphenyl-2-yl)-2-piperazin-1-ylethyl]cyclohexanol dihydrochloride]"
12,25,"OC1(C(CN2CCNCC2)c2ccc(-c3cccc(Cl)c3)cc2)CCCCC1 (stereo not shown) [Example 167, 1-[1-(3′-chloro-1,1′-biphenyl-4-yl)-2-piperazin-1-ylethyl]cyclohexanol dihydrochloride]"
13,50,"N#Cc1cccc(C(CN2CCNCC2)C2(O)CCCCC2)c1 (stereo not shown) [Example 160, 1-[1-(3-cyanophenyl)-2-piperazin-1-ylethyl]cyclohexanol dihydrochloride]"
14,13,"OC1(C(CN2CCNCC2)c2cccc(-c3ccc(F)c(F)c3)c2)CCCCC1 (stereo not shown) [Example 147, 1-[1-(3′,4′-difluoro-1,1′-biphenyl-3-yl)-2-piperazin-1-ylethyl]cyclohexanol dihydrochloride]"
15,59,"OC1(C(CN2CCNCC2)c2ccc(OCc3ccccc3C(F)(F)F)c(Cl)c2)CCCCC1 (stereo not shown) [Example 421, 1-[1-(3-chloro-4-{[2-(trifluoromethyl)benzyl]oxy}phenyl)-2-piperazin-1-ylethyl]cyclohexanol dihydrochloride]"
16,13,"OC1(C(CN2CCNCC2)c2ccc(-c3ccccc3Cl)cc2)CCCCC1 (stereo not shown) [Example 165, 1-[1-(2′-chloro-1,1′-biphenyl-4-yl)-2-piperazin-1-ylethyl]cyclohexanol dihydrochloride]"
17,35,"OC1(C(CN2CCNCC2)c2ccc(-c3ccc(Cl)c(Cl)c3)cc2)CCCCC1 (stereo not shown) [Example 173, 1-[1-(3′,4′-dichloro-1,1′-biphenyl-4-yl)-2-piperazin-1-ylethyl]cyclohexanol dihydrochloride]"

# Same assay, conditions: 10 μM test compound (stated in the cell), [3H]NE uptake
row,inhibition at 10 µM [%],SMILES
1,44.5,"OC1(C(CN2CCNCC2)c2ccc(Oc3ccccc3)cc2)CCCCC1 (stereo not shown) [Example 307, 1-[1-(4-phenoxyphenyl)-2-piperazin-1-ylethyl]cyclohexanol dihydrochloride]"

# Same assay, conditions: [3H]NE uptake, test range 1 to 10,000 nM
row,EC50 [nM],SMILES
1,635,"OC1(C(CN2CCNCC2)c2cccc(-c3ccc(Cl)c(Cl)c3)c2)CCCCC1 (stereo not shown) [Example 135, 1-[1-(3′,4′-dichloro-1,1′-biphenyl-3-yl)-2-piperazin-1-ylethyl]cyclohexanol dihydrochloride]"
